Reference: US6346282B1, “Neuroprotective composition for the prevention and/or treatment of nervous and behavioural alterations due to anxiety states or depression, comprising acetyl-L-carnitine and hypericin” (priority 1998, dated 2002)

Key:
[1] = tested on: mice descending from platform; experiment: Platform Test in mice; assay type: in vivo; conditions: ten animals per group, carnitine mixture or acetyl L-carnitine 400 mg/kg, Hypericum extract 300 mg/kg, hypericin 1 mg/kg; for % of mice descending from 5 cm: platform 5 cm from the ground; for % of mice descending from 9 cm: platform 9 cm from the ground
Method: Ten animals were used per group and the percentage of animals that managed to descend from the platform was calculated. […] It was modified even more by the administration of a combination of these products plus the carnitine mixture (L-carnitine+acetyl L-carnitine+propionyl L-carnitine+isovaleryl L-carnitine present in the same weight ratio to one another, making a total dose of 400 mg/kg) or acetyl L-carnitine 400 mg/kg, neither of which modifies the animals' behaviour when administered alone.

[2] = tested on: swimming-induced immobility in mice; experiment: Immobility induced by forced swimming; assay type: in vivo; conditions: last four minutes of six, oral, two administrations six hours and three hours before
Text: One of the tests regarded as being most significant for assessing the activity of antidepressant substances is the forced swimming test in the mouse, which measures the changes in swimming-induced immobility which the various test substances produce (Borsini, F., Psychopharmacology, 94, 147, 1988). In these tests, the technique described by Persolt was adopted (Persolt, R. D., Eur. J. Pharmacol., 57, 201, 1979—Persolt, R. D., Arch. Int. Pharmacology, 229, 327, 1977) using ten […] per group. The animals were placed in beakers measuring 14 cm in height and approximately 12 cm in internal diameter which were filled with water (20-22° C.) up to 7.5 cm from the rim and then left there for six minutes. The duration of the immobility was calculated during the last four minutes. The mice were considered immobile when they performed only the movements necessary to keep themselves afloat on the water.
The substances tested were administered orally in two administrations six hours and three hours prior to the start of the experiment.

[3] = tested on: aggression of isolated male mice; experiment: Isolation-induced aggression test; assay type: in vivo; conditions: treated eight hours and half an hour before test, observation 180 seconds, carnitine mixture or acetyl L-carnitine 400 mg/kg, Hypericum extract 300 mg/kg, hypericin 1 mg/kg
Text: This method consists in making the mice aggressive by keeping them isolated for twenty-one days in a cage and in assessing, after treatment, the latency time needed to trigger the aggression of the isolated animal when another animal is put in the cage with it. Only animals with latency times of less than 10 seconds before attacking were included in the tests, and the time of attack was taken as the time the isolated animal bit or tried to bite the other animal introduced into the cage.
The observation time was 180 seconds and the experiment was started 30 minutes after administration of the products tested. All isolated animals were treated, both eight hours and half an hour before the test, with carnitine mixture (consisting of a combination of L-carnitine+acetyl L-carnitine+propionyl L-carnitine+isovaleryl L-carnitine in an equiponderal ratio to one another) (400 mg/kg), or with acetyl L-carnitine (400 mg/kg) or with Hypericum extract (300 mg/kg) or with hypericin (1 mg/kg), or with various combinations of these products.

[4] = tested on: cerebral (cortex) concentrations of serotonin (5-HT) and hydroxy-indole-acetic acid (5-HIAA); experiment: Protective action against abnormal brain serotonin concentrations induced by fenfluramine; assay type: in vivo, (Sprague-Dawley) male rats; conditions: CC 400 mg/kg, AC 400 mg/kg, HE 300 mg/kg, HYP 1 mg/kg, two weeks after treatment
Text: Since changes in concentration of cerebral biogenic amines regulate both excitatory and depressive emotional behaviour states, it was decided, in view of the above-mentioned action of hypericin and Hypericum extracts at catecholamine and particularly serotoninergic receptor level and on the reuptake of serotonin itself, to evaluate changes in cerebral concentrations of serotonin after treatment with Hypericum extracts, hypericin, carnitine mixture or acetyl L-carnitine, alone or in various combinations, in conjunction with treatment with a substance such as fenfluramine, the neurotoxicity of which manifests itself also through a reduction in brain serotonin concentrations. It is well known, in fact, that fenfluramine [N-ethyl-α-methyl-m-(trifluoro-methyl)phenethylamine] exerts a neurotoxic action on the brain, which is identifiable both histologically on the basis of derangement of the cerebral serotoninergic structures and through depletion of serotonin concentrations in the brain.
The tests were conducted using a group of (Sprague-Dawley) male rats which were administered fenfluramine orally at the dose of 5 mg/kg twice daily for 5 days consecutively, either alone or at the same time, and for the same period, as a carnitine mixture (400 mg/kg) (consisting in a combination of L-carnitine+acetyl L-carnitine+propionyl L-carnitine+isovaleryl L-carnitine present in the same weight ratio to one another), or acetyl L-carnitine (400 mg/kg), or Hypericum extract (with a 0.3% hypericin content−300 mg/kg), or hypericin (1 mg/kg), or various combinations of these products at the same doses.
Two weeks after treatment, the animals were sacrificed and the cerebral cortex isolated and subjected to measurement of the cerebral content both of serotonin (5-HT) and of hydroxy-indole-acetic acid (5-HIAA) according to the method described by Wise (Wise, C. D., Anal. Biochem., 18, 94, 1967) and modified by Ricaurte (Ricaurte, G. A., J. Pharmacol. Exptl. Ther., 261, 616, 1992).

rats and mice = experiment: Toxicology tests, single-dose oral administration; assay type: in vivo; conditions: 2 g/kg carnitine mixture, 2 g/kg acetyl L-carnitine, 1 g/kg Hypericum extract (approx. 0.3% hypericin), 3 mg/kg hypericin, each alone
[5] = tested on: motor exploration activity in the mouse; experiment: Exploratory activity in mice (Hole Board Test); assay type: in vivo
Method: This reduction is not related to sedation caused by the drug in the animal and can be offset using anxiolytic agents.
Using the technique described by Boissier (Boissier J. R., Physiol. Behav., 2. 447. 1967), tests (Hole Board Test) were conducted in order in a group of mice to ascertain whether the reduction in motor exploration activity induced in the animals by low-dose amphetamine (1 mg/kg i.p.) could be corrected by the oral administration of a carnitine mixture (consisting of a combination of L-carnitine+acetyl L-carnitine+propionyl L-carnitine+isovaleryl L carnitine in the same weight ratio to one another), or of acetyl L-carnitine, or Hypericum extract, or hypericin, or various combinations of these products.

[6] = product alone, oral, 5 days, FE 5 mg/kg twice daily
[7] = together with fenfluramine (FE) 5 mg/kg oral twice daily for 5 days
[8] = oral treatment together with Amphetamine 1 mg/kg i.p., 30 minutes after amphetamine, CC 400 mg/kg, AC 400 mg/kg, HE 300 mg/kg, HYP 1 mg/kg

Q: CC(=O)O[C@H](CC(=O)[O-])C[N+](C)(C)C [Acetyl L-carnitine, acetyl L-carnitine] was tested. Which “% of mice descending from 5 cm” value [1] did it give?
A: 70%

Q: What about the “% of mice descending from 9 cm” value [1] of the same compound?
A: 0%

Q: What about the Immobility time [2] of the same compound?
A: 204 ± 8

Q: And the “Latency time of attack” value [3]?
A: 14 ± 3 s

Q: What about the “Cerebral (cortex) concentrations 5-HIAA” value [4, 6] of the same compound?
A: 0.28 ± 0.012 ng/mg tissue

Q: What about the “Cerebral (cortex) concentrations 5-HT” value [4, 6] of the same compound?
A: 0.35 ± 0.020 ng/mg tissue

Q: And the “Cerebral (cortex) concentrations 5-HIAA” value [4, 7]?
A: 0.15 ± 0.019 ng/mg tissue

Q: What about the “Cerebral (cortex) concentrations 5-HT” value [4, 7] of the same compound?
A: 0.18 ± 0.011 ng/mg tissue

Q: What about the “toxic effects or mortality” value (rats and mice) of the same compound?
A: lack of toxic effects or mortality

Q: And the “Motor exploration activity, variations compared to controls” value [5, 8]?
A: −48

Q: Which “Motor exploration activity, variations compared to controls” value ([5]; Amphetamine 1 mg/kg i.p. alone, 30 minutes after administration) does the source give for CC(N)Cc1ccccc1 (stereo not drawn) [Amphetamine, amphetamine] here?
A: −45

Q: And the “Motor exploration activity, variations compared to controls” value ([5]; Amphetamine 5 mg/kg i.p. alone, 30 minutes after administration)?
A: +55

Q: Which results are given for CCNC(C)Cc1cccc(C(F)(F)F)c1 (stereo not drawn) [FE, N-ethyl-α-methyl-m-(trifluoro-methyl)phenethylamine]?
A: Cerebral (cortex) concentrations 5-HIAA [4, 6]: 0.14 ± 0.011 ng/mg tissue; Cerebral (cortex) concentrations 5-HT [4, 6]: 0.17 ± 0.010 ng/mg tissue

Q: For Cc1cc(O)c2c(=O)c3c(O)cc(O)c4c5c(O)cc(O)c6c(=O)c7c(O)cc(C)c8c1c2c(c34)c(c78)c65 [Hypericin, 1,3,4,6,8,13-hexahydroxy-10,11-dimethylphenanthro[1,10,9,8-opqra]perylene-7,14-dione], which “% of mice descending from 5 cm” value [1] is on record?
A: 90%

Q: What about the “% of mice descending from 9 cm” value [1] of the same compound?
A: 30%

Q: What about the Immobility time [2] of the same compound?
A: 195 ± 5

Q: What about the “Latency time of attack” value [3] of the same compound?
A: 100 ± 9 s

Q: And the “Cerebral (cortex) concentrations 5-HIAA” value [4, 6]?
A: 0.30 ± 0.030 ng/mg tissue

Q: And the “Cerebral (cortex) concentrations 5-HT” value [4, 6]?
A: 0.36 ± 0.019 ng/mg tissue

Q: And the “Cerebral (cortex) concentrations 5-HIAA” value [4, 7]?
A: 0.25 ± 0.018 ng/mg tissue

Q: What about the “Cerebral (cortex) concentrations 5-HT” value [4, 7] of the same compound?
A: 0.28 ± 0.020 ng/mg tissue

Q: What about the “toxic effects or mortality” value (rats and mice) of the same compound?
A: lack of toxic effects or mortality

Q: What about the “Motor exploration activity, variations compared to controls” value [5, 8] of the same compound?
A: −5
